Where two headings read alike, the source gives them in different places.
Assays:
Assay type in all cases: cell-based, human
NCI-H358 (K-Ras G12C) = assay: CellTiter-Glo cell viability assay, H358
Procedure: (§1) Note—The following protocol describes a procedure for monitoring cell viability of K-Ras mutant cancer cell lines in response to a compound of the invention. Other RAS isoforms may be employed, though the number of cells to be seeded will vary based on cell line used.
(§2) Test compounds (132.5 nL) were directly dispensed into the assay plates containing cells. […] On day 5, assay plates and their contents were equilibrated to room temperature for approximately 30 minutes. […] Luminescence was measured using the PerkinElmer Enspire. Data were normalized by the following: (Sample signal/Avg. DMSO)*100. The data were fit using a four-parameter logistic fit.

AsPC-1 (K-Ras G12D) [1] = assay: CellTiter-Glo cell viability assay, AsPC-1; conditions: read-out: AsPC-1 Cell Viability IC50
Procedure: as §1, §2

AsPC-1 (K-Ras G12D) [2] = assay: Potency assay: pERK
Procedure: The purpose of this assay is to measure the ability of test compounds to inhibit K-Ras in cells. […] This procedure measures a decrease in cellular pERK in response to test compounds. The procedure described below in NCI-H358 cells is applicable to K-Ras G12C.
NCI-H358 cells were grown and maintained using media and procedures recommended by the ATCC. On the day prior to compound addition, cells were plated in 384-well cell culture plates (40 μl/well) and grown overnight in a 37° C., 5% CO2 incubator. Test compounds were prepared in 10, 3-fold dilutions in DMSO, with a high concentration of 10 mM. On the day of assay, 40 nL of test compound was added to each well of cell culture plate using an Echo550 liquid handler (LabCyte®). Concentrations of test compound were tested in duplicate. After compound addition, cells were incubated 4 hours at 37° C., 5% CO2. Following incubation, culture medium was removed and cells were washed once with phosphate buffered saline.
In some experiments, cellular pERK level was determined using the AlphaLISA SureFire Ultra p-ERK1/2 Assay Kit (PerkinElmer). Cells were lysed in 25 μL lysis buffer, with shaking at 600 RPM at room temperature. Lysate (10 μL) was transferred to a 384-well Opti-plate (PerkinElmer) and 5 μL acceptor mix was added. After a 2-hour incubation in the dark, 5 μL donor mix was added, plate was sealed, and incubated 2 hours at room temperature. Signal was read on an Envision plate reader (PerkinElmer) using standard AlphaLISA settings. Analysis of raw data was carried out in Excel (Microsoft) and Prism (GraphPad). Signal was plotted vs. the decadal logarithm of compound concentration, and IC50 was determined by fitting a 4-parameter sigmoidal concentration response model.
In other experiments, cellular pERK was determined by In-Cell Western. Following compound treatment, cells were washed twice with 200 μL tris buffered saline (TBS) and fixed for 15 minutes with 150 μL 4% paraformaldehyde in TBS. Fixed cells were washed 4 times for 5 minutes with TBS containing 0.1% Triton X-100 (TBST) and then blocked with 100 μL Odyssey blocking buffer (LI-COR) for 60 minutes at room temperature. Primary antibody (PERK, CST-4370, Cell Signaling Technology) was diluted 1:200 in blocking buffer, and 50 μL was added to each well and incubated overnight at 4° C. Cells were washed 4 times for 5 minutes with TBST. Secondary antibody (IR-800CW rabbit, LI-COR, diluted 1:800) and DNA stain DRAQ5 (LI-COR, diluted 1:2000) were added and incubated 1-2 hours at room temperature. Cells were washed 4 times for 5 minutes with TBST. Plates were scanned on a Li—COR Odyssey CLx Imager. Analysis of raw data was carried out in Excel (Microsoft) and Prism (GraphPad). Signal was plotted vs. the decadal logarithm of compound concentration, and IC50 was determined by fitting a 4-parameter sigmoidal concentration response model.

[3] = Homo sapiens, NCI-H358, 120 h, read-out: H358 Cell Viability IC50, K-Ras G12C, 5-day treatment
[4] = Homo sapiens, ASPC1, read-out: pERK EC50

SMILES	IC50 (NCI-H358 (K-Ras G12C); [3]) [µM]	IC50 (AsPC-1 (K-Ras G12D) [1]; Homo sapiens, ASPC1, 120 h) [µM]	EC50 (AsPC-1 (K-Ras G12D) [2]; [4]) [µM]	IC50 (NCI-H358 (K-Ras G12C); read-out: H358 Cell Viability IC50, K-Ras G12C, 5-day treatment) [µM]	EC50 (AsPC-1 (K-Ras G12D) [2]; read-out: pERK EC50, AsPC-1 KRAS G12D) [µM]	IC50 (AsPC-1 (K-Ras G12D) [1]; K-Ras G12D, 5-day treatment) [µM]
CCn1c(-c2cnccc2COC)c2c3cc(ccc31)-c1cc(O)cc(c1)C[C@H](NC(=O)[C@H](C(C)C)N(C)C(=O)CN(C)C(=O)[C@@H]1CN1Cc1ccccc1)C(=O)N1CCC[C@H](N1)C(=O)OCC(C)(C)C2 (stereo partly drawn) [Example 10]	0.01 to 0.1	1 to 10	< 5	–	–	–
CCn1c(-c2cnccc2COC)c2c3cc(ccc31)-c1cc(O)cc(c1)C[C@H](NC(=O)[C@H](C(C)C)N(C)C(=O)CN(C)C(=O)[C@@H]1N[C@@H]1C(=O)OC)C(=O)N1CCC[C@H](N1)C(=O)OCC(C)(C)C2 [Example 49, methyl (2S,3R)-3-((2-(((2S)-1-(((6^3S,4S)-1^1-ethyl-25-hydroxy-1^2-(4-(methoxymethyl)pyridin-3-yl)-10,10-dimethyl-5,7-dioxo-6^1,6^2,6^3,6^4,6^5,6^6-hexahydro-1^1H-8-oxa-1 (5,3)-indola-6 (1,3)-pyridazina-2 (1,3)-benzenacycloundecaphane-4-yl)amino)-3-methyl-1-oxobutan-2-yl) (methyl)amino)-2-oxoethyl) (methyl)carbamoyl) aziridine-2-carboxylate]	1 to 10	1 to 10	< 5	–	–	–
CCn1c(-c2cccnc2[C@H](C)OC)c2c3cc(ccc31)-c1cc(O)cc(c1)C[C@H](NC(=O)[C@H](C(C)C)N(C)C(=O)CN(C)C(=O)[C@@H]1N[C@H]1COC)C(=O)N1CCC[C@H](N1)C(=O)OCC(C)(C)C2 [Example 85]	0.01 to 0.1	1 to 10	< 5	–	–	–
CCn1c(-c2cccnc2[C@H](C)OC)c2c3cc(ccc31)-c1cc(O)cc(c1)C[C@H](NC(=O)[C@H](C(C)C)N(C)C(=O)CN(C)C(=O)C1CN1CCOC)C(=O)N1CCC[C@H](N1)C(=O)OCC(C)(C)C2 (stereo partly drawn) [Example 90]	< 0.01	0.1 to 1	< 5	–	–	–
CCn1c(-c2cccnc2[C@H](C)OC)c2c3cc(ccc31)-c1cc(O)cc(c1)C[C@H](NC(=O)[C@H](C1CCCC1)N(C)C(=O)CN(C)C(=O)[C@H]1CN1)C(=O)N1CCC[C@H](N1)C(=O)OCC(C)(C)C2 [Example 95, (2R)—N-(2-(((1S)-1-cyclopentyl-2-(((6^3S,4S)-1^1-ethyl-25-hydroxy-1^2-(2-((S)-1-methoxyethyl)pyridin-3-yl)-10,10-dimethyl-5,7-dioxo-61,62,63,64,65,66-hexahydro-1^1H-8-oxa-1 (5,3)-indola-6 (1,3)-pyridazina-2 (1,3)-benzenacycloundecaphane-4-yl)amino)-2-oxoethyl) (methyl)amino)-2-oxoethyl)-N-methylaziridine-2-carboxamide]	< 0.01	0.01 to 0.1	< 5	–	–	–
CCn1c(-c2cccnc2[C@H](C)OC)c2c3cc(ccc31)-c1cc(O)cc(c1)C[C@H](NC(=O)[C@H](C(C)C)N(C)C(=O)[C@H](C)N(C)C(=O)[C@H]1CN1)C(=O)N1CCC[C@H](N1)C(=O)OCC(C)(C)C2 [Example 102]	0.01 to 0.1	0.1 to 1	< 5	–	–	–
CCn1c(-c2cccnc2[C@H](C)OC)c2c3cc(ccc31)-c1cccc(c1)C[C@H](NC(=O)[C@H](C(C)C)N(C)C(=O)CN(C)C(=O)[C@H]1CN1)C(=O)N1CCC[C@H](N1)C(=O)OCC(C)(C)C2 [Example 107]	0.1 to 1	1 to 10	< 5	–	–	–
CCn1c(-c2cccnc2[C@H](C)OC)c2c3cc(ccc31)-c1cc(O)cc(c1)C[C@H](NC(=O)[C@H](C(C)C)N(C)C(=O)CN(C)C(=O)[C@@H]1N[C@@H]1C1CC1)C(=O)N1CCC[C@H](N1)C(=O)OCC(C)(C)C2 [Example 133, (2R,3R)-3-cyclopropyl-N-(2-(((2S)-1-(((6^3S,4S)-1^1-ethyl-25-hydroxy-1^2-(2-((S)-1-methoxyethyl)pyridin-3-yl)-10,10-dimethyl-5,7-dioxo-61,62,63,64,65,66-hexahydro-1^1H-8-oxa-1 (5,3)-indola-6 (1,3)-pyridazina-2 (1,3)-benzenacycloundecaphane-4-yl)amino)-3-methyl-1-oxobutan-2-yl) (methyl)amino)-2-oxoethyl)-N-methylaziridine-2-carboxamide]	0.01 to 0.1	0.01 to 0.1	< 5	–	–	–
CCn1c(-c2cccnc2[C@H](C)OC)c2c3cc(ccc31)-c1cc(O)cc(c1)C[C@H](NC(=O)[C@H](C(C)C)N(C)C(=O)CN(C)C(=O)[C@H]1N[C@@H]1C1CC1)C(=O)N1CCC[C@H](N1)C(=O)OCC(C)(C)C2 [Example 135]	–	0.1 to 1	–	0.01 to 0.1	< 5	–
CCn1c(-c2cccnc2[C@H](C)OC)c2c3cc(ccc31)-c1cc(O)cc(c1)C[C@H](NC(=O)[C@H](C(C)C)N(C)C(=O)CN(C)C(=O)[C@H]1N[C@@H]1C1CC1)C(=O)N1CCC[C@H](N1)C(=O)OCC(C)(C)C2 [Example 136]	< 0.01	–	< 5	–	–	0.1 to 1
CCn1c(-c2cccnc2[C@H](C)OC)c2c3cc(ccc31)-c1cc(O)cc(c1)C[C@H](NC(=O)[C@H](C(C)C)N(C)C(=O)CN(C)C(=O)[C@@H]1CN1CCCOC)C(=O)N1CCC[C@H](N1)C(=O)OCC(C)(C)C2 (stereo partly drawn) [Example 137]	< 0.01	0.1 to 1	< 5	–	–	–
CCn1c(-c2cccnc2[C@H](C)OC)c2c3cc(ccc31)-c1cc(O)cc(c1)C[C@H](NC(=O)[C@H](C(C)C)N(C)C(=O)CNC(=O)[C@@H]1N[C@@H]1C1CC1)C(=O)N1CCC[C@H](N1)C(=O)OCC(C)(C)C2 [Example 141]	0.1 to 1	0.1 to 1	< 5	–	–	–
CCn1c(-c2cccnc2[C@H](C)OC)c2c3cc(ccc31)-c1cc(O)cc(c1)C[C@H](NC(=O)[C@H](C(C)C)N(C)C(=O)CN(C)C(=O)[C@H]1CN1C(C)C)C(=O)N1CCC[C@H](N1)C(=O)OCC(C)(C)C2 (stereo partly drawn) [Example 142]	< 0.01	0.1 to 1	< 5	–	–	–
CCC(C)N(C)C(=O)c1cncc(-c2c3c4cc(ccc4n2CC)-c2cc(O)cc(c2)C[C@H](NC(=O)[C@H](C(C)C)N(C)C(=O)CN(C)C(=O)[C@H]2CN2)C(=O)N2CCC[C@H](N2)C(=O)OCC(C)(C)C3)c1 (stereo partly drawn) [Example 144]	0.01 to 0.1	0.1 to 1	< 5	–	–	–
CCn1c(-c2cccnc2[C@H](C)OC)c2c3cc(ccc31)-c1cc(O)cc(c1)C[C@H](NC(=O)[C@H](C(C)C)N(C)C(=O)CN(C)C(=O)[C@@H]1CN1C(C)C)C(=O)N1CCC[C@H](N1)C(=O)OCC(C)(C)C2 (stereo partly drawn) [Example 148]	< 0.01	0.1 to 1	< 5	–	–	–
CCn1c(-c2cccnc2[C@H](C)OC)c2c3cc(ccc31)-c1cc(O)cc(c1)C[C@H](NC(=O)[C@H](C(C)C)N(C)C(=O)CN(C)C(=O)[C@@H]1CN1)C(=O)N1CCC[C@H](N1)C(=O)OCC(C)(C)C2 [Example 150]	< 0.01	0.1 to 1	< 5	–	–	–
CCn1c(-c2cccnc2[C@H](C)OC)c2c3cc(ccc31)-c1cc(O)cc(c1)C[C@H](NC(=O)[C@H](C(C)C)N(C)C(=O)CN(C)C(=O)[C@H]1CN1Cc1ccccc1F)C(=O)N1CCC[C@H](N1)C(=O)OCC(C)(C)C2 (stereo partly drawn) [Example 155]	< 0.01	0.1 to 1	< 5	–	–	–
CCn1c(-c2cccnc2[C@H](C)OC)c2c3cc(ccc31)-c1cc(O)cc(c1)C[C@H](NC(=O)[C@H](C(C)C)N(C)C(=O)CN(C)C(=O)[C@H]1CN1Cc1ccccc1CO)C(=O)N1CCC[C@H](N1)C(=O)OCC(C)(C)C2 (stereo partly drawn) [Example 156]	< 0.01	0.1 to 1	< 5	–	–	–
